Laboratory results from PubChem BioAssay AID558 (University of Pittsburgh Molecular Library Screening Center, 2006).
Activity calls are given as the source filed them. How the calls were made is not given here.

Target: Dual specificity protein phosphatase 1 (Homo sapiens) (UniProt P28562)
Assay: MKP-1 phosphatase inhibition under DTT, dose response, biochemical, DTT added, probe assessment (AID 558)
Conditions: recombinant MKP-1 phosphatase, fluorescence, with DTT

Chain of Dual specificity protein phosphatase 1 (Homo sapiens) (P28562 whole entry, looked up): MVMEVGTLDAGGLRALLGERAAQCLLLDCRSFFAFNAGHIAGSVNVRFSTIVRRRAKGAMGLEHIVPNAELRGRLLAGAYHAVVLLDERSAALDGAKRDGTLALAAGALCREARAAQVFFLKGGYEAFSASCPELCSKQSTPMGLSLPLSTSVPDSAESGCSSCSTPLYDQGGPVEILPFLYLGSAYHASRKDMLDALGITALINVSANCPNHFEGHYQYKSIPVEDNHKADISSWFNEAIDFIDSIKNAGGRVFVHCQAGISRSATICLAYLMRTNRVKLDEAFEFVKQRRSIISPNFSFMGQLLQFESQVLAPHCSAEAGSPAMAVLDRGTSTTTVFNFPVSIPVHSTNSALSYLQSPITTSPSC

For `O=C1C(C2=C(O)c3ccccc3C2=O)=Nc2ccccc21`, the IC50 was > 50 µM (inactive).
